Source: patent USRE38332E1, “Selected soluble esters of hydroxyl-containing indolocarbazoles” (Cephalon, Inc., priority 1995, dated 2003)

test system: ChAT activity in spinal cord cultures; experiment: Effect of indolocarbazole esters on ChAT activity in dissociated spinal cord cultures; format: cell-based, rat; conditions: 500 nM
Procedure: The effect of indolocarbazole esters of the invention on ChAT activity was assayed in dissociated spinal cord cultures prepared from fetal rats. ChAT is the enzyme that catalyzes the synthesis of the neurotransmitter acetylcholine, and it is a specific biochemical marker for cholinergic neurons. In the spinal cord, the large majority of cholinergic neurons are motor neurons. Assay of this enzyme may thus be used as an indication of the effects of a factor (or factors) on the survival and/or differentiation of cholinergic neurons and/or regulation of this enzyme. The procedure used for the assay is that described in Example 6 of WO 94/02488. Fourteen esters were tested in the spinal cord ChAT assay to determine their relative efficacy, and the results are summarized in Table 4.

SMILES	Spinal Cord ChAT Activity (% of Control) 500 nM
COC1(COC(=O)C(C)(C)N)CC2OC1(C)n1c3ccccc3c3c4c(c5c6ccccc6n2c5c31)C(=O)NC4.Cl (stereo not drawn) [Example 12, (I-5)-α-Aminoisobutyrate Hydrochloride]	155 % of Control
COC1(COC(=O)C(N)CCCNC(=N)N)CC2OC1(C)n1c3ccccc3c3c4c(c5c6ccccc6n2c5c31)C(=O)NC4.Cl.Cl (centres unmarked) [Example 10, (I-5)-Argininate Dihydrochloride]	128 % of Control
COC1(COC(=O)CCC(=O)O)CC2OC1(C)n1c3ccccc3c3c4c(c5c6ccccc6n2c5c31)C(=O)NC4 (centres unmarked) [Example 4, (I-5)-Hydrogen Succinate]	150 % of Control
COC1(COC(=O)C(N)CCCCN)CC2OC1(C)n1c3ccccc3c3c4c(c5c6ccccc6n2c5c31)C(=O)NC4.Cl.Cl (centres unmarked) [Example 1, (I-5)-Lysinate Dihydrochloride]	150 % of Control
COC1(COC(=O)CN)CC2OC1(C)n1c3ccccc3c3c4c(c5c6ccccc6n2c5c31)C(=O)NC4.Cl (centres unmarked) [Example 2, (I-5)-Glycinate Hydrochloride]	157 % of Control

same assay, conditions: 1000 nM

SMILES	Spinal Cord ChAT Activity (% of Control) 1000 nM
COC1(COC(=O)C(C)(C)N)CC2OC1(C)n1c3ccccc3c3c4c(c5c6ccccc6n2c5c31)C(=O)NC4.Cl (stereo not drawn) [Example 12, (I-5)-α-Aminoisobutyrate Hydrochloride]	150 % of Control
COC1(COC(=O)C(N)CCCNC(=N)N)CC2OC1(C)n1c3ccccc3c3c4c(c5c6ccccc6n2c5c31)C(=O)NC4.Cl.Cl (centres unmarked) [Example 10, (I-5)-Argininate Dihydrochloride]	170 % of Control
COC1(COC(=O)CCC(=O)O)CC2OC1(C)n1c3ccccc3c3c4c(c5c6ccccc6n2c5c31)C(=O)NC4 (centres unmarked) [Example 4, (I-5)-Hydrogen Succinate]	154 % of Control
COC1(COC(=O)C(N)CCCCN)CC2OC1(C)n1c3ccccc3c3c4c(c5c6ccccc6n2c5c31)C(=O)NC4.Cl.Cl (centres unmarked) [Example 1, (I-5)-Lysinate Dihydrochloride]	153 % of Control
COC1(COC(=O)CN)CC2OC1(C)n1c3ccccc3c3c4c(c5c6ccccc6n2c5c31)C(=O)NC4.Cl (centres unmarked) [Example 2, (I-5)-Glycinate Hydrochloride]	151 % of Control

test system: not listed separately; experiment: In vitro metabolism of I-5 esters in rat plasma; format: in vitro ADME; conditions: 5000 ng/mL, 37° C.
Procedure: (§1) Freshly-collected plasma from male Sprague-Dawley rats and presumably-healthy drug-free male humans was pooled and immediately frozen. The plasma was kept frozen at −90° C. and each aliquot was thawed only once for use in incubations. Stock solutions of the indolocarbazole esters were prepared in DMSO and were used to prepare standard curves in plasma that had been boiled to two minutes. Boiled plasma was divided into 500 μL aliquots, mixed with an aliquot of the internal standard, and spiked with the respective stock indolocarbazole ester solutions to prepare the standard curve. Thawed plasma was divided into 500 μL aliquots, placed in screw-cap vials, mixed with internal standard, and spiked with stock solutions of the respective indolocarbazole esters to yield a nominal concentration of 5000 ng/mL.
(§2) Incubations were then performed at 37° C. in a shaking water bath for 0, 0.5, 1, 2, 5, 10, 15, 30, and 60 minutes and quenched by addition of 5 mL methylene chloride. All tubes (standards and experimentals) were extracted for 15 minutes by shaking, and centrifuged. The methylene chloride layer was removed, dried under a stream of nitrogen, and reconstituted in DMSO. Fifty μL of the reconstituted extracts were analyzed by reverse-phase HPLC with detection at 290 nm. The mobile phase and gradient conditions are given below: […]

SMILES	hydrolysis of the ester linkage, liberation of indolocarbazole I-5	maximum rates of hydrolysis
COC1(COC(=O)C(N)CCCNC(=N)N)CC2OC1(C)n1c3ccccc3c3c4c(c5c6ccccc6n2c5c31)C(=O)NC4.Cl.Cl (centres unmarked) [Example 10, (I-5)-Argininate Dihydrochloride]	complete prior to the first sampling period	–
COC1(COC(=O)CN)CC2OC1(C)n1c3ccccc3c3c4c(c5c6ccccc6n2c5c31)C(=O)NC4.Cl (centres unmarked) [Example 2, (I-5)-Glycinate Hydrochloride]	–	more extensively hydrolyzed

test system: not listed separately; experiment: In vitro metabolism of I-5 esters in human plasma; format: in vitro ADME; conditions: 5000 ng/mL, 37° C.
Procedure: as §1, §2

SMILES	hydrolysis, conversion to indolocarbazole I-5
COC1(COC(=O)C(N)CCCNC(=N)N)CC2OC1(C)n1c3ccccc3c3c4c(c5c6ccccc6n2c5c31)C(=O)NC4.Cl.Cl (centres unmarked) [Example 10, (I-5)-Argininate Dihydrochloride]	hydrolyzed rapidly
COC1(COC(=O)C(N)CCCCN)CC2OC1(C)n1c3ccccc3c3c4c(c5c6ccccc6n2c5c31)C(=O)NC4.Cl.Cl (centres unmarked) [Example 1, (I-5)-Lysinate Dihydrochloride]	hydrolyzed rapidly

test system: not listed separately; experiment: Solubility of the esters at 1 mg/ml in water and buffer solutions; conditions: 10 mM Tris buffer pH 9
Procedure: Indolocarbazole esters were dissolved in water, dimethylsulfoxide (DMSO) and the following buffer solutions to determine solubility and to observe conversion to indolocarbazole I-5. Samples were analyzed by HPLC using UV detection at 290 nm.
Solution 2 was a 10 mM acetate buffer at pH 4 which was prepared by weighing 0.68 g of sodium acetate 3H2O into 500 ml of water and adjusting the pH with acetic acid.
Solution 3 was a 10 mM phosphate buffer, pH 7, which was prepared by weighing 0.30 g of monobasic sodium phosphate and 0.36 g of dibasic sodium phosphate into 500 ml of water, stirring until completely dissolved, and adjusting the pH with hydrochloric acid.
Solution 4 was a 10 mM Tris buffer, pH 9, which was prepared by weighing 0.79 g of Tris (tris(hydroxymethyl)aminomethane hydrochloride) into 500 ml of water, stirring until completely dissolved, and adjusting the pH with sodium hydroxide.
Sample solutions were prepared by weighing 0.5-1 mg of the indolocarbazole ester into an amber 1.5 ml autosampler vial, to which the appropriate quantity of one of the buffer solutions was added, in order to achieve a final concentration of 1 mg/ml. The sample solutions were vortexed and sonicated for 10 minutes. Fifty μl aliquots were placed into 1.5 ml amber autosampler vials. The reaction was quenched at a selected time interval by addition of 450 μl DMSO to the vial.

SMILES	solubility in Tris buffer
COC1(COC(=O)C(C)(C)N)CC2OC1(C)n1c3ccccc3c3c4c(c5c6ccccc6n2c5c31)C(=O)NC4.Cl (stereo not drawn) [Example 12, (I-5)-α-Aminoisobutyrate Hydrochloride]	not completely soluble
COC1(COC(=O)CCC(=O)O)CC2OC1(C)n1c3ccccc3c3c4c(c5c6ccccc6n2c5c31)C(=O)NC4 (centres unmarked) [Example 4, (I-5)-Hydrogen Succinate]	not completely soluble
COC1(COC(=O)C(N)CCCCN)CC2OC1(C)n1c3ccccc3c3c4c(c5c6ccccc6n2c5c31)C(=O)NC4.Cl.Cl (centres unmarked) [Example 1, (I-5)-Lysinate Dihydrochloride]	completely soluble

same assay, conditions: 10 mM acetate buffer pH 4

SMILES	solubility in acetate buffer
COC1(COC(=O)C(C)(C)N)CC2OC1(C)n1c3ccccc3c3c4c(c5c6ccccc6n2c5c31)C(=O)NC4.Cl (stereo not drawn) [Example 12, (I-5)-α-Aminoisobutyrate Hydrochloride]	completely soluble
COC1(COC(=O)CCC(=O)O)CC2OC1(C)n1c3ccccc3c3c4c(c5c6ccccc6n2c5c31)C(=O)NC4 (centres unmarked) [Example 4, (I-5)-Hydrogen Succinate]	not completely soluble
COC1(COC(=O)C(N)CCCCN)CC2OC1(C)n1c3ccccc3c3c4c(c5c6ccccc6n2c5c31)C(=O)NC4.Cl.Cl (centres unmarked) [Example 1, (I-5)-Lysinate Dihydrochloride]	completely soluble

same assay, conditions: 10 mM phosphate buffer pH 7

SMILES	solubility in phosphate buffer
COC1(COC(=O)C(C)(C)N)CC2OC1(C)n1c3ccccc3c3c4c(c5c6ccccc6n2c5c31)C(=O)NC4.Cl (stereo not drawn) [Example 12, (I-5)-α-Aminoisobutyrate Hydrochloride]	not completely soluble
COC1(COC(=O)CCC(=O)O)CC2OC1(C)n1c3ccccc3c3c4c(c5c6ccccc6n2c5c31)C(=O)NC4 (centres unmarked) [Example 4, (I-5)-Hydrogen Succinate]	not completely soluble
COC1(COC(=O)C(N)CCCCN)CC2OC1(C)n1c3ccccc3c3c4c(c5c6ccccc6n2c5c31)C(=O)NC4.Cl.Cl (centres unmarked) [Example 1, (I-5)-Lysinate Dihydrochloride]	completely soluble

same assay, conditions: water (Solution 1)

SMILES	solubility in water
COC1(COC(=O)C(C)(C)N)CC2OC1(C)n1c3ccccc3c3c4c(c5c6ccccc6n2c5c31)C(=O)NC4.Cl (stereo not drawn) [Example 12, (I-5)-α-Aminoisobutyrate Hydrochloride]	completely soluble
COC1(COC(=O)CCC(=O)O)CC2OC1(C)n1c3ccccc3c3c4c(c5c6ccccc6n2c5c31)C(=O)NC4 (centres unmarked) [Example 4, (I-5)-Hydrogen Succinate]	not completely soluble
COC1(COC(=O)C(N)CCCCN)CC2OC1(C)n1c3ccccc3c3c4c(c5c6ccccc6n2c5c31)C(=O)NC4.Cl.Cl (centres unmarked) [Example 1, (I-5)-Lysinate Dihydrochloride]	completely soluble
